This passage reports EC50 results from patent US20250333406A1, “SULFONYL CYCLIC DERIVATIVES, AND COMPOSITIONS AND METHODS THEREOF” (Lysoway Therapeutics, Inc., priority 2023, published 2025).

This assay deals with TFEB. Briefly: TFEB Nuclear Translocation Assay. The format is cell-based. Particulars: read-out: EC50 of TFEB activation.
Turning to `CC(C)S(=O)(=O)n1ccc(S(=O)(=O)n2nc(N3CCN(c4ncc(F)cc4F)CC34CC4)c3c(Cl)cc(F)cc32)c1` [Compound 158, 4-chloro-3-[7-(3,5-difluoro-2-pyridyl)-4,7-diazaspiro [2.5]octan-4-yl]-6-fluoro-1-(1-isopropylsulfonylpyrrol-3-yl) sulfonyl-indazole], the EC50 was at most 1 µM.

As for `CC(C)S(=O)(=O)n1ccc(S(=O)(=O)n2nc(N3CCN(c4ncc(F)cc4F)CC34CC4)c3c(F)cc(F)cc32)c1` [Compound 159, 3-(7-(3,5-difluoropyridin-2-yl)-4,7-diazaspiro [2.5]octan-4-yl)-4,6-difluoro-1-((1-(isopropylsulfonyl)-1H-pyrrol-3-yl)sulfonyl)-1H-indazole], the 50% effective concentration (EC50) is at most 1 µM.

On to `Cc1cc(S(=O)(=O)n2nc(N3CCN(c4ncc(F)cc4F)CC34CC4)c3c(Cl)cc(F)cc32)c(C)n1S(=O)(=O)C(C)C` [Compound 160, 4-chloro-3-[7-(3,5-difluoro-2-pyridyl)-4,7-diazaspiro [2.5]octan-4-yl]-6-fluoro-1-(1-isopropylsulfonyl-2,5-dimethyl-pyrrol-3-yl) sulfonyl-indazole], for which the 50% effective concentration (EC50) is at most 1 µM.

Consider `CC(C)S(=O)(=O)n1ccc(S(=O)(=O)n2nc(N3CCN(c4ccc(F)cn4)CC34CC4)c3c(Cl)cc(F)cc32)c1` [Compound 161, 4-chloro-6-fluoro-3-[7-(5-fluoro-2-pyridyl)-4,7-diazaspiro [2.5]octan-4-yl]-1-(1-isopropylsulfonylpyrrol-3-yl) sulfonyl-indazole], for which the concentration for a half-maximal effect (EC50) was at most 1 µM.

For the compound `CC(C)S(=O)(=O)n1ccc(S(=O)(=O)n2nc(N3CCN(c4ncccc4F)CC34CC4)c3c(Cl)cc(F)cc32)c1` [Compound 162, 4-chloro-6-fluoro-3-[7-(3-fluoro-2-pyridyl)-4,7-diazaspiro [2.5]octan-4-yl]-1-(1-isopropylsulfonylpyrrol-3-yl) sulfonyl-indazole], the half-maximal effective concentration (EC50) was at most 1 µM.

As for `CC(C)S(=O)(=O)n1ccc(S(=O)(=O)n2nc(N3CCN(c4ccccn4)CC34CC4)c3c(Cl)cc(F)cc32)c1` [Compound 163, 4-chloro-6-fluoro-1-(1-isopropylsulfonylpyrrol-3-yl)sulfonyl-3-[7-(2-pyridyl)-4,7-diazaspiro[2.5]octan-4-yl]indazole], the EC50 was at most 1 µM.

For the compound `CC(C)S(=O)(=O)n1ccc(S(=O)(=O)n2nc(N3CCN(c4ncccn4)CC34CC4)c3c(Cl)cc(F)cc32)c1` [Compound 164, 4-chloro-6-fluoro-1-(1-isopropylsulfonylpyrrol-3-yl)sulfonyl-3-(7-pyrimidin-2-yl-4,7-diazaspiro[2.5]octan-4-yl) indazole], the EC50 is at most 1 µM.

For `CC(C)S(=O)(=O)n1ccc(S(=O)(=O)n2nc(N3CCN(c4ccc(F)cn4)CC34CC4)c3c(F)cc(F)cc32)c1` [Compound 165, 4,6-difluoro-3-(7-(5-fluoropyridin-2-yl)-4,7-diazaspiro [2.5]octan-4-yl)-1-((1-(isopropylsulfonyl)-1H-pyrrol-3-yl)sulfonyl)-1H-indazole], the concentration giving a half-maximal response (EC50) was at most 1 µM.

As to `CC(C)S(=O)(=O)n1ccc(S(=O)(=O)n2nc(N3CCN(c4ncc(F)cn4)CC34CC4)c3c(F)cc(F)cc32)c1` [Compound 166, 4,6-difluoro-3-(7-(5-fluoropyrimidin-2-yl)-4,7-diazaspiro [2.5]octan-4-yl)-1-((1-(isopropylsulfonyl)-1H-pyrrol-3-yl)sulfonyl)-1H-indazole], the EC50 is at most 1 µM.

Take `CC(C)S(=O)(=O)n1ccc(S(=O)(=O)n2nc(N3CCN(c4ncc(F)cn4)CC34CC4)c3c(F)cc(Cl)cc32)c1` [Compound 167, 6-chloro-4-fluoro-3-(7-(5-fluoropyrimidin-2-yl)-4,7-diazaspiro [2.5]octan-4-yl)-1-((1-(isopropylsulfonyl)-1H-pyrrol-3-yl)sulfonyl)-1H-indazole]: the EC50 is at most 1 µM.

Take `CC(C)S(=O)(=O)n1ccc(S(=O)(=O)n2nc(N3CCN(c4ncc(F)cc4F)CC34CC4)c3c(F)cc(Cl)cc32)c1` [Compound 168, 6-chloro-3-[7-(3,5-difluoro-2-pyridyl)-4,7-diazaspiro [2.5]octan-4-yl]-4-fluoro-1-(1-isopropylsulfonylpyrrol-3-yl) sulfonyl-indazole]: the EC50 was at most 1 µM.

Regarding `CN(C)S(=O)(=O)n1ccc(S(=O)(=O)n2nc(N3CCN(c4ncc(F)cn4)CC34CC4)c3c(F)cc(F)cc32)c1` [Compound 169, 3-[4,6-difluoro-3-[7-(5-fluoropyrimidin-2-yl)-4,7-diazaspiro [2.5]octan-4-yl]indazol-1-yl]sulfonyl-N, N-dimethyl-pyrrole-1-sulfonamide], the concentration for a half-maximal effect (EC50) is at most 1 µM.

`CN(C)S(=O)(=O)n1ccc(S(=O)(=O)n2nc(N3CCN(c4ncc(F)cn4)CC34CC4)c3c(Cl)cc(F)cc32)c1` [Compound 170, 3-[4-chloro-6-fluoro-3-[7-(5-fluoropyrimidin-2-yl)-4,7-diazaspiro [2.5]octan-4-yl]indazol-1-yl]sulfonyl-N, N-dimethyl-pyrrole-1-sulfonamide]: the EC50 was at most 1 µM.

Take `CC(C)(C)S(=O)(=O)n1ccc(S(=O)(=O)n2nc(N3CCN(c4ncc(F)cn4)CC34CC4)c3c(Cl)cc(F)cc32)c1` [Compound 171, 1-((1-(tert-butylsulfonyl)-1H-pyrrol-3-yl)sulfonyl)-4-chloro-6-fluoro-3-(7-(5-fluoropyrimidin-2-yl)-4,7-diazaspiro [2.5]octan-4-yl)-1H-indazole]: the concentration giving a half-maximal response (EC50) was at most 1 µM.

In the case of `CC(C)(C)S(=O)(=O)n1ccc(S(=O)(=O)n2nc(N3CCN(c4ncc(F)cn4)CC34CC4)c3c(F)cc(F)cc32)c1` [Compound 172, 1-((1-(tert-butylsulfonyl)-1H-pyrrol-3-yl)sulfonyl)-4,6-difluoro-3-(7-(5-fluoropyrimidin-2-yl)-4,7-diazaspiro [2.5]octan-4-yl)-1H-indazole], the EC50 was at most 1 µM.

As to `O=S(=O)(c1ccn(S(=O)(=O)C2CC2)c1)n1nc(N2CCN(c3ncc(F)cn3)CC23CC3)c2c(Cl)cc(F)cc21` [Compound 173, 4-chloro-1-((1-(cyclopropylsulfonyl)-1H-pyrrol-3-yl)sulfonyl)-6-fluoro-3-(7-(5-fluoropyrimidin-2-yl)-4,7-diazaspiro [2.5]octan-4-yl)-1H-indazole], the EC50 was at most 1 µM.

In the case of `O=S(=O)(c1ccn(S(=O)(=O)C2CC2)c1)n1nc(N2CCN(c3ncc(F)cn3)CC23CC3)c2c(F)cc(F)cc21` [Compound 174, 1-((1-(cyclopropylsulfonyl)-1H-pyrrol-3-yl)sulfonyl)-4,6-difluoro-3-(7-(5-fluoropyrimidin-2-yl)-4,7-diazaspiro [2.5]octan-4-yl)-1H-indazole], the EC50 was at most 1 µM.

As for `CC(C)S(=O)(=O)n1ccc(S(=O)(=O)n2nc(N3CCN(c4ccc(F)cc4)CC34CC4)c3c(Cl)cc(F)cc32)c1` [Compound 175, 4-chloro-6-fluoro-3-(7-(4-fluorophenyl)-4,7-diazaspiro [2.5]octan-4-yl)-1-((1-(isopropylsulfonyl)-1H-pyrrol-3-yl)sulfonyl)-1H-indazole], the EC50 is at most 1 µM.

As for `CC(C)S(=O)(=O)n1ccc(S(=O)(=O)n2nc(N3CCN(c4ccncc4)CC34CC4)c3c(Cl)cc(F)cc32)c1` [Compound 176, 4-chloro-6-fluoro-1-(1-isopropylsulfonylpyrrol-3-yl) sulfonyl-3-[7-(4-pyridyl)-4,7-diazaspiro [2.5]octan-4-yl]indazole], the EC50 is at least 10 µM.

For the compound `CC(C)S(=O)(=O)n1ccc(S(=O)(=O)n2nc(N3CCN(c4ncc(F)cn4)C[C@@H]3C)c3c(Cl)cc(F)cc32)c1` [Compound 177, 4-chloro-6-fluoro-3-[(2S)-4-(5-fluoropyrimidin-2-yl)-2-methyl-piperazin-1-yl]-1-(1-isopropylsulfonylpyrrol-3-yl) sulfonyl-indazole], the EC50 is at most 1 µM.

Take `CC(C)S(=O)(=O)n1ccc(S(=O)(=O)n2nc(N3CCN(c4ncc(F)cn4)C[C@H]3C)c3c(Cl)cc(F)cc32)c1` [Compound 178, 4-chloro-6-fluoro-3-[(2R)-4-(5-fluoropyrimidin-2-yl)-2-methyl-piperazin-1-yl]-1-(1-isopropylsulfonylpyrrol-3-yl) sulfonyl-indazole]: the concentration for a half-maximal effect (EC50) is at most 1 µM.

Take `CC(C)S(=O)(=O)n1ccc(S(=O)(=O)n2nc(N3CCN(c4ncc(F)cn4)CC34CCC4)c3c(Cl)cc(F)cc32)c1` [Compound 179, 4-chloro-6-fluoro-3-(8-(5-fluoropyrimidin-2-yl)-5,8-diazaspiro [3.5]nonan-5-yl)-1-((1-(isopropylsulfonyl)-1H-pyrrol-3-yl)sulfonyl)-1H-indazole]: the half-maximal effective concentration (EC50) is at most 1 µM.

On to `[2H]c1c(S(=O)(=O)n2nc(N3CCN(c4ncc(F)cn4)CC34CC4)c3c(Cl)cc(F)cc32)c([2H])n(S(=O)(=O)C(C)C)c1[2H]` [Compound 180, 4-chloro-6-fluoro-3-[7-(5-fluoropyrimidin-2-yl)-4,7-diazaspiro [2.5]octan-4-yl]-1-(2,4,5-trideuterio-1-isopropylsulfonyl-pyrrol-3-yl) sulfonyl-indazole], for which the half-maximal effective concentration (EC50) was at most 1 µM.

Regarding `[2H]c1c(S(=O)(=O)n2nc(N3CCN(c4ncc(F)cn4)CC34CC4)c3c(Cl)cc(F)cc32)c([2H])n(S(=O)(=O)C(C)(C)Cl)c1[2H]` [Compound 181, 4-chloro-1-[1-(1-chloro-1-methyl-ethyl)sulfonyl-2,4,5-trideuterio-pyrrol-3-yl]sulfonyl-6-fluoro-3-[7-(5-fluoropyrimidin-2-yl)-4,7-diazaspiro[2.5]octan-4-yl]indazole], the 50% effective concentration (EC50) was at most 1 µM.

On to `CC(C)S(=O)(=O)n1ccc(S(=O)(=O)n2nc(N3CCN(c4c(F)cccc4F)CC34CC4)c3c(Cl)cc(F)cc32)c1` [Compound 182, 4-chloro-3-(7-(2,6-difluorophenyl)-4,7-diazaspiro [2.5]octan-4-yl)-6-fluoro-1-((1-(isopropylsulfonyl)-1H-pyrrol-3-yl)sulfonyl)-1H-indazole], for which the EC50 is at most 1 µM.

On to `CC(C)S(=O)(=O)n1ccc(S(=O)(=O)n2nc(N3CCN(S(C)(=O)=O)CC34CC4)c3c(Cl)cc(F)cc32)c1` [Compound 183, 4-chloro-6-fluoro-1-((1-(isopropylsulfonyl)-1H-pyrrol-3-yl)sulfonyl)-3-(7-(methylsulfonyl)-4,7-diazaspiro [2.5]octan-4-yl)-1H-indazole], for which the EC50 was in the range of 1 to 10 µM.
